Earlier results as cited in US5288707A, “Borolysine peptidomimetics” (Sandoz Ltd., priority 1990, dated 1994).

Columns and labels:
thrombin = thrombin (Homo sapiens, UniProt P00734); details: reversible and irreversible inhibitors, value given as a range of magnitude
[1] = in vivo

Row | Compound | inhibition in vitro (thrombin) | LD50 value [1]
1 | NC(N)=NCCC[C@H](NC(=O)[C@@H]1CCCN1C(=O)[C@H](N)Cc1ccccc1)C(=O)CCl [D-Phe-Pro-Arg-CH2 Cl] | ~10^-8 M | 
2 | N=C(N)NCCC[C@@H](C=O)NC(=O)[C@@H]1CCCN1C(=O)[C@H](N)Cc1ccccc1 [D-Phe-Pro-Arginal] | ~10^-8 M | quite a low
